Results as given in patent publication US11807644B2 (PMV Pharmaceuticals, Inc., priority 2020, dated 2023).

target: T1, recombinant His-tag Y220C p53 DBD protein (Homo sapiens, UniProt P04637, Y220C); experiment: In vitro DNA binding activity assay (TR-FRET): binding of His-tag Y220C p53 DBD to biotin-labeled consensus DNA; format: biochemical; conditions: SC150 = concentration to increase DNA binding by […], His-tag Y220C p53 DBD, biotin-labeled consensus DNA
T1 construct: recombinant His-tag Y220C p53 DBD protein (amino acids #˜94-312)

Row | Y220C SC150 (μM) | Compound
1 | * (* = 0 μM ≤ SC150 < 0.1 μM) | CN1CC[C@@H](Nc2cccc3c2cc(-c2noc(CNC(=O)c4cnn([C@H]5CCC[C@@H]5F)c4)n2)n3CC(F)(F)F)[C@@H](F)C1 (relative stereo) [Compound 395B]
2 | * (* = 0 μM ≤ SC150 < 0.1 μM) | COC1CCCC1n1cc(C(=O)NCc2nc(-c3cc4c(N[C@@H]5CCN(C)C[C@@H]5F)cccc4n3CC(F)(F)F)no2)cn1 (stereo in doubt) [Compound 348B, N-{[3-(4-{[(3S,4R)-3-fluoro-1-methylpiperidin-4-yl]amino}-1-(2,2,2-trifluoroethyl)-1H-indol-2-yl)-1,2,4-oxadiazol-5-yl]methyl}-1-[(1R,2R)-2-methoxycyclopentyl]-1H-pyrazole-4-carboxamide]
3 | * (* = 0 μM ≤ SC150 < 0.1 μM) | COC1CCC(n2ccc(C(=O)NCc3nc(-c4cc5c(N[C@@H]6CCN(C)C[C@@H]6F)cccc5n4CC(F)(F)F)no3)c2)C1 (stereo in doubt) [Compound 359B, N-{[3-(4-{[(3S,4R)-3-fluoro-1-methylpiperidin-4-yl]amino}-1-(2,2,2-trifluoroethyl)-1H-indol-2-yl)-1,2,4-oxadiazol-5-yl]methyl)-1-[(1R,3S)-3-methoxycyclopentyl]-1H-pyrrole-3-carboxamide]
4 | * (* = 0 μM ≤ SC150 < 0.1 μM) | COC1CCC(n2ccc(C(=O)NCc3nc(-c4cc5c(N[C@@H]6CCN(C)C[C@@H]6F)cccc5n4CC(F)(F)F)no3)c2)C1 (stereo in doubt) [Compound 360B, N-{[3-(4-{[(3S,4R)-3-fluoro-1-methylpiperidin-4-yl]amino}-1-(2,2,2-trifluoroethyl)-1H-indol-2-yl)-1,2,4-oxadiazol-5-yl]methyl}-1-[(1R,3R)-3-methoxycyclopentyl]-1H-pyrrole-3-carboxamide]
5 | * (* = 0 μM ≤ SC150 < 0.1 μM) | CN1CC[C@@H](Nc2cccc3c2cc(-c2noc(CNC(=O)c4ccn(C5CCC(N(C)C)C5)c4)n2)n3CC(F)(F)F)[C@@H](F)C1 (stereo in doubt) [Compound 361B, 1-[(1R,3R)-3-(dimethylamino)cyclopentyl]-N-{[3-(4-{[(3S,4R)-3-fluoro-1-methylpiperidin-4-yl]amino}-1-(2,2,2-trifluoroethyl)-1H-indol-2-yl)-1,2,4-oxadiazol-5-yl]methyl}-1H-pyrrole-3-carboxamide]
6 | * (* = 0 μM ≤ SC150 < 0.1 μM) | CN1CC[C@@H](Nc2cccc3c2cc(-c2noc(CNC(=O)c4ccn([C@H]5CC[C@@H](N(C)C)C5)c4)n2)n3CC(F)(F)F)[C@@H](F)C1 (stereo in doubt) [Compound 362B, Cis-1-[(1R,3R)-3-(dimethylamino)cyclopentyl]-N-{[3-(4-{[(3S,4R)-3-fluoro-1-methylpiperidin-4-yl]amino}-1-(2,2,2-trifluoroethyl)-1H-indol-2-yl)-1,2,4-oxadiazol-5-yl]methyl}-1H-pyrrole-3-carboxamide]
7 | * (* = 0 μM ≤ SC150 < 0.1 μM) | COC1CCCC1n1ccc(C(=O)NCc2nc(-c3cc4c(N[C@@H]5CCN(C)C[C@@H]5F)cccc4n3CC(F)(F)F)no2)c1 (stereo in doubt) [Compound 364B, N-{[3-(4-{[(3S,4R)-3-fluoro-1-methylpiperidin-4-yl]amino}-1-(2,2,2-trifluoroethyl)-1H-indol-2-yl)-1,2,4-oxadiazol-5-yl]methyl}-1-[(1R,2S)-2-methoxycyclopentyl]-1H-pyrrole-3-carboxamide]
8 | * (* = 0 μM ≤ SC150 < 0.1 μM) | CN1CC[C@@H](Nc2cccc3c2cc(-c2noc(CNC(=O)c4ccn([C@H]5CC[C@](C)(O)C5)c4)n2)n3CC(F)(F)F)[C@@H](F)C1 (stereo in doubt) [Compound 373B, Trans-N-{[3-(4-{[(3S,4R)-3-fluoro-1-methylpiperidin-4-yl]amino}-1-(2,2,2-trifluoroethyl)-1H-indol-2-yl)-1,2,4-oxadiazol-5-yl]methyl}-1-[(1R,3R)-3-hydroxy-3-methylcyclopentyl]-1H-pyrrole-3-carboxamide]
9 | * (* = 0 μM ≤ SC150 < 0.1 μM) | CN1CC[C@@H](Nc2cccc3c2cc(-c2noc(CNC(=O)c4ccn([C@H]5CC[C@@](C)(O)C5)c4)n2)n3CC(F)(F)F)[C@@H](F)C1 (stereo in doubt) [Compound 374B, Cis-N-{[3-(4-{[(3S,4R)-3-fluoro-1-methylpiperidin-4-yl]amino}-1-(2,2,2-trifluoroethyl)-1H-indol-2-yl)-1,2,4-oxadiazol-5-yl]methyl}-1-[(1R,3S)-3-hydroxy-3-methylcyclopentyl]-1H-pyrrole-3-carboxamide]
10 | * (* = 0 μM ≤ SC150 < 0.1 μM) | CCOC1CCCC1n1cc(C(=O)NCc2nc(-c3cc4c(N[C@@H]5CCN(C)C[C@@H]5F)cccc4n3CC(F)(F)F)no2)cn1 (stereo in doubt) [Compound 375B, 1-[(1R,2R)-2-ethoxycyclopentyl]-N-{[3-(4-{[(3S,4R)-3-fluoro-1-methylpiperidin-4-yl]amino}-1-(2,2,2-trifluoroethyl)-1H-indol-2-yl)-1,2,4-oxadiazol-5-yl]methyl}-1H-pyrazole-4-carboxamide]
11 | * (* = 0 μM ≤ SC150 < 0.1 μM) | CCOC1CCCC1n1ccc(C(=O)NCc2nc(-c3cc4c(N[C@@H]5CCN(C)C[C@@H]5F)cccc4n3CC(F)(F)F)no2)c1 (stereo in doubt) [Compound 376B, 1-[(1R,2R)-2-ethoxycyclopentyl]-N-{[3-(4-{[(3S,4R)-3-fluoro-1-methylpiperidin-4-yl]amino}-1-(2,2,2-trifluoroethyl)-1H-indol-2-yl)-1,2,4-oxadiazol-5-yl]methyl}-1H-pyrrole-3-carboxamide]
12 | * (* = 0 μM ≤ SC150 < 0.1 μM) | CN1CC[C@@H](Nc2cccc3c2cc(-c2noc(CNC(=O)c4cnn(C5CCCC5OCCF)c4)n2)n3CC(F)(F)F)[C@@H](F)C1 (stereo in doubt) [Compound 377B, N-{[3-(4-{[(3S,4R)-3-fluoro-1-methylpiperidin-4-yl]amino}-1-(2,2,2-trifluoroethyl)-1H-indol-2-yl)-1,2,4-oxadiazol-5-yl]methyl}-1-[(1R,2R)-2-(2-fluoroethoxy)cyclopentyl]-1H-pyrazole-4-carboxamide]
13 | * (* = 0 μM ≤ SC150 < 0.1 μM) | CN1CC[C@@H](Nc2cccc3c2cc(-c2noc(CNC(=O)c4ccn(C5CCCC5OCCF)c4)n2)n3CC(F)(F)F)[C@@H](F)C1 (stereo in doubt) [Compound 381B, N-{[3-(4-{[(3S,4R)-3-fluoro-1-methylpiperidin-4-yl]amino}-1-(2,2,2-trifluoroethyl)-1H-indol-2-yl)-1,2,4-oxadiazol-5-yl]methyl}-1-[(1R,2R)-2-(2-fluoroethoxy)cyclopentyl]-1H-pyrrole-3-carboxamide]
14 | * (* = 0 μM ≤ SC150 < 0.1 μM) | CN1CC[C@@H](Nc2cccc3c2cc(-c2noc(CNC(=O)c4ccn(C5CCCC5F)c4)n2)n3CC(F)(F)F)[C@@H](F)C1 (stereo in doubt) [Compound 392B, N-{[3-(4-{[(3S,4R)-3-fluoro-1-methylpiperidin-4-yl]amino}-1-(2,2,2-trifluoroethyl)-1H-indol-2-yl)-1,2,4-oxadiazol-5-yl]methyl}-1-[(1R,2R)-2-fluorocyclopentyl]-1H-pyrrole-3-carboxamide]
15 | * (* = 0 μM ≤ SC150 < 0.1 μM) | CC(C)(C)N1CCC(Nc2cccc3c2cc(-c2noc(CNC(=O)c4cnn(C(C)(C)C)c4)n2)n3CC(F)(F)F)[C@@H](F)C1 (stereo in doubt) [Compound 400B, 1-tert-butyl-N-{[3-(4-{[(3S,4R)-1-tert-butyl-3-fluoropiperidin-4-yl]amino}-1-(2,2,2-trifluoroethyl)-1H-indol-2-yl)-1,2,4-oxadiazol-5-yl]methyl}-1H-pyrazole-4-carboxamide]
16 | * (* = 0 μM ≤ SC150 < 0.1 μM) | COC1CCCC1n1ccc(C(=O)NCc2nc(-c3cc4c(N[C@@H]5CN(C)CC[C@@H]5F)cccc4n3CC(F)(F)F)no2)c1 (stereo in doubt) [Compound 410B, N-{[3-(4-{[(3R,4S)-4-fluoro-1-methylpiperidin-3-yl]amino}-1-(2,2,2-trifluoroethyl)-1H-indol-2-yl)-1,2,4-oxadiazol-5-yl]methyl}-1-[(1R,2R)-2-methoxycyclopentyl]-1H-pyrrole-3-carboxamide]
17 | * (* = 0 μM ≤ SC150 < 0.1 μM) | CC1(n2ccc(C(=O)NCc3nc(-c4cc5c(N[C@@H]6CCOC[C@@H]6F)cccc5n4CC(F)(F)F)no3)c2)CCOCC1 (stereo in doubt) [Compound 491B]
18 | * (* = 0 μM ≤ SC150 < 0.1 μM) | CC1(n2ccc(C(=O)NCc3nc(-c4cc5c(N[C@@H]6CCOC[C@@H]6F)cccc5n4CC(F)(F)F)no3)c2)CCOCC1 (stereo in doubt) [Compound 494B, N-((3-(4-(((3R,4R)-3-fluorotetrahydro-2H-pyran-4-yl)amino)-1-(2,2,2-trifluoroethyl)-1H-indol-2-yl)-1,2,4-oxadiazol-5-yl)methyl)-1-(4-methyltetrahydro-2H-pyran-4-yl)-1H-pyrrole-3-carboxamide]
19 | * (* = 0 μM ≤ SC150 < 0.1 μM) | C[C@@H]1CN(C)CC[C@@H]1Nc1cccc2c1cc(-c1noc(CNC(=O)c3ccc(C(C)(C)O)s3)n1)n2CC(F)(F)F (stereo in doubt) [Compound 515B, N-{[3-(4-{[(3R,4S)-1,3-dimethylpiperidin-4-yl]amino}-1-(2,2,2-trifluoroethyl)-1H-indol-2-yl)-1,2,4-oxadiazol-5-yl]methyl)-5-(2-hydroxypropan-2-yl)thiophene-2-carboxamide]
20 | * (* = 0 μM ≤ SC150 < 0.1 μM) | CC1CN(c2nc(C(=O)NCc3nc(-c4cc5c(N[C@@H]6CCN(C)C[C@@H]6F)cccc5n4CC(F)(F)F)no3)cs2)C[C@H](C)O1 (stereo in doubt) [Compound 517B, 2-[(2S,6S)-2,6-dimethylmorpholin-4-yl]-N-{[3-(4-{[(3S,4R)-3-fluoro-1-methylpiperidin-4-yl]amino}-1-(2,2,2-trifluoroethyl)-1H-indol-2-yl)-1,2,4-oxadiazol-5-yl]methyl}-1,3-thiazole-4-carboxamide]
